Experiments:
[1] = biological target: T1, pEGFR, A431 cells (wildtype EGFR) (Homo sapiens, UniProt P00533); test: Cellular EGFR phosphorylation assay (LANCE Ultra TR-FRET) in A431 cells; type: cell-based; details: 4 hours at 37° C., 40 ng/mL EGF for the final 10 minutes, read-out: A431 pEGFR IC50
T1 construct: pEGFR (Tyr1068) TR-FRET
Summary of the method: (§1)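 IC50 values come from TR-FRET detection of EGFR phosphorylated at Tyr1068 in whole-cell lysates. Compound exposure lasts 4 h at 37 °C across nine 3-fold concentrations, and the wildtype-amplified A431 line receives 40 ng/mL EGF during the last 10 minutes.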

EGFR (L858R/T790M) = EGFR (L858R/T790M) (Homo sapiens, UniProt P00533, L858R/T790M); test: HotSpot radiometric kinase assay, inhibition of EGFR L858R/T790M mutant; type: biochemical; details: 33P ATP, room temperature, 120 m
Description: (§2) Biochemical Assays for inhibition of wild-type and mutant EGFRs
(§3) Briefly, specific kinase/substrate pairs along with required cofactors were prepared in reaction buffer; 20 mM HEPES pH 7.5, 10 mM […], 1 mM EGTA, 0.02% Brij35, 0.02 mg/ml BSA, 0.1 mM Na3VO4, 2 mM DTT, 1% DMSO. Compounds were delivered into the reaction, followed ~20 minutes later by addition of a mixture of ATP (Sigma, St. Louis MO) and ^33P ATP (Perkin Elmer, Waltham MA) to a final concentration of […]. Reactions were carried out at room temperature for 120 m, followed by spotting of the reactions onto P81 ion exchange filter paper (Whatman Inc., Piscataway, NJ). Unbound phosphate was removed by extensive washing of filters in 0.75% phosphoric acid. […] IC50 values and curve fits were obtained using Prism (GraphPad Software).

EGFR (D746-750/C797S) = EGFR (D746-750/C797S) (Homo sapiens, UniProt P00533, C797S/DEL746-750); test: HotSpot radiometric kinase assay, inhibition of EGFR 746-750/C797S mutant; type: biochemical; details: 33P ATP, room temperature, 120 m
Summary of the method: (§4)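 Radiometric filter-binding format: ATP plus 33P-ATP ([…]) was added about 20 min after compound to kinase and substrate in HEPES pH 7.5 buffer with Mg2+, EGTA, Brij35, BSA, vanadate, DTT and 1% DMSO. After 120 min at room temperature, reactions were spotted on P81 paper and washed in phosphoric acid; IC50 values fitted.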

EGFR WT = EGFR WT (Homo sapiens, UniProt P00533); test: HotSpot radiometric kinase assay, inhibition of EGFR WT; type: biochemical; details: 33P ATP, room temperature, 120 m
Description: as §2, §3

EGFR (L858R) = EGFR (L858R) (Homo sapiens, UniProt P00533, L858R); test: HotSpot radiometric kinase assay, inhibition of EGFR L858R mutant; type: biochemical; details: 33P ATP, room temperature, 120 m
Description: as §2, §3

[2] = biological target: T2, pEGFR, NCI-H1975 cells (L858R/T790M EGFR) (Homo sapiens, UniProt P00533, L858R/T790M); test: Cellular EGFR phosphorylation assay (LANCE Ultra TR-FRET) in NCI-H1975 cells; type: cell-based; details: 4 hours at 37° C., read-out: H1975 pEGFR IC50
T2 construct: pEGFR (Tyr1068) TR-FRET
Summary of the method: as §1

EGFR (L858R/T790M/C797S) = EGFR (L858R/T790M/C797S) (Homo sapiens, UniProt P00533, C797S/L858R/T790M); test: HotSpot radiometric kinase assay, inhibition of EGFR L858R/T790M/C797S mutant; type: biochemical; details: 33P ATP, room temperature, 120 m
Summary of the method: as §4

EGFR (D770_N771insNPG) = EGFR (D770_N771insNPG) (Homo sapiens, UniProt P00533, INS770NPG); test: HotSpot radiometric kinase assay, inhibition of EGFR (D770_N771insNPG) mutant; type: biochemical; details: 33P ATP, room temperature, 120 m
Summary of the method: as §4

[3] = tested on: BaF3 cells with engineered EGFR d746-750/T790M; test: 3-Day CellTiter Glo (CTG) cell proliferation assay, BaF3 EGFR d746-750/T790M; type: cell-based; details: Mus musculus; BaF3 EGFR d746-750/T790M cells, 3-day CTG proliferation, 72 hours
Summary of the method: (§5)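 Luminescent ATP read-out (CellTiter-Glo 2.0) after 72 h compound exposure gives IC50 values. BaF3 transgenic cells, one thousand per well, received a nine-dose series and were kept at 37 °C under 5% CO2.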

EGFR (D746-750) = EGFR (D746-750) (Homo sapiens, UniProt P00533, DEL746-750); test: HotSpot radiometric kinase assay, inhibition of EGFR 746-750 mutant; type: biochemical; details: 33P ATP, room temperature, 120 m
Summary of the method: as §4

[4] = biological target: T3, pEGFR, PC-9 cells (d746-750 EGFR) (Homo sapiens, UniProt P00533, DEL746-750); test: Cellular EGFR phosphorylation assay (LANCE Ultra TR-FRET) in PC-9 cells; type: cell-based; details: 4 hours at 37° C., read-out: PC-9 pEGFR IC50
T3 construct: pEGFR (Tyr1068) TR-FRET
Summary of the method: as §1

[5] = tested on: BaF3 cells with engineered EGFR L858R/T790M/C797S; test: 3-Day CellTiter Glo (CTG) cell proliferation assay, BaF3 EGFR L858R/T790M/C797S; type: cell-based; details: Mus musculus, 3-day CTG proliferation, 72 hours
Summary of the method: as §5

PC-9 cells = test: 5-Day CellTiter Glo (CTG) cell proliferation assay, PC-9; type: cell-based; details: Homo sapiens; PC-9 cells (d746-750 EGFR), 5-day CTG proliferation, 120 hours; read-out: PC-9 IC50
Summary of the method: (§6)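 Proliferation of EGFR-driven NSCLC cells was scored as CellTiter-Glo 2.0 luminescence after a 5-day (120 h) incubation with compounds in 9 doses. IC50 values came from the dose-response curves.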

HCC827 cells = test: 5-Day CellTiter Glo (CTG) cell proliferation assay, HCC827; type: cell-based; details: Homo sapiens; HCC827 cells (d746-750 EGFR), 5-day CTG proliferation, 120 hours; read-out: HCC827 IC50
Summary of the method: as §6

NCI-H1975 cells = test: 5-Day CellTiter Glo (CTG) cell proliferation assay, NCI-H1975; type: cell-based; details: Homo sapiens; NCI-H1975 cells (L858R/T790M EGFR), 5-day CTG proliferation, 120 hours; read-out: H1975 IC50
Summary of the method: as §6

[6] = tested on: BaF3 cells with engineered EGFR L858R/C797S; test: 3-Day CellTiter Glo (CTG) cell proliferation assay, BaF3 EGFR L858R/C797S; type: cell-based; details: Mus musculus, 3-day CTG proliferation, 72 hours
Summary of the method: as §5

EGFR (L858R/T790M), sequence (P00533 25-1210 T790M/L858R): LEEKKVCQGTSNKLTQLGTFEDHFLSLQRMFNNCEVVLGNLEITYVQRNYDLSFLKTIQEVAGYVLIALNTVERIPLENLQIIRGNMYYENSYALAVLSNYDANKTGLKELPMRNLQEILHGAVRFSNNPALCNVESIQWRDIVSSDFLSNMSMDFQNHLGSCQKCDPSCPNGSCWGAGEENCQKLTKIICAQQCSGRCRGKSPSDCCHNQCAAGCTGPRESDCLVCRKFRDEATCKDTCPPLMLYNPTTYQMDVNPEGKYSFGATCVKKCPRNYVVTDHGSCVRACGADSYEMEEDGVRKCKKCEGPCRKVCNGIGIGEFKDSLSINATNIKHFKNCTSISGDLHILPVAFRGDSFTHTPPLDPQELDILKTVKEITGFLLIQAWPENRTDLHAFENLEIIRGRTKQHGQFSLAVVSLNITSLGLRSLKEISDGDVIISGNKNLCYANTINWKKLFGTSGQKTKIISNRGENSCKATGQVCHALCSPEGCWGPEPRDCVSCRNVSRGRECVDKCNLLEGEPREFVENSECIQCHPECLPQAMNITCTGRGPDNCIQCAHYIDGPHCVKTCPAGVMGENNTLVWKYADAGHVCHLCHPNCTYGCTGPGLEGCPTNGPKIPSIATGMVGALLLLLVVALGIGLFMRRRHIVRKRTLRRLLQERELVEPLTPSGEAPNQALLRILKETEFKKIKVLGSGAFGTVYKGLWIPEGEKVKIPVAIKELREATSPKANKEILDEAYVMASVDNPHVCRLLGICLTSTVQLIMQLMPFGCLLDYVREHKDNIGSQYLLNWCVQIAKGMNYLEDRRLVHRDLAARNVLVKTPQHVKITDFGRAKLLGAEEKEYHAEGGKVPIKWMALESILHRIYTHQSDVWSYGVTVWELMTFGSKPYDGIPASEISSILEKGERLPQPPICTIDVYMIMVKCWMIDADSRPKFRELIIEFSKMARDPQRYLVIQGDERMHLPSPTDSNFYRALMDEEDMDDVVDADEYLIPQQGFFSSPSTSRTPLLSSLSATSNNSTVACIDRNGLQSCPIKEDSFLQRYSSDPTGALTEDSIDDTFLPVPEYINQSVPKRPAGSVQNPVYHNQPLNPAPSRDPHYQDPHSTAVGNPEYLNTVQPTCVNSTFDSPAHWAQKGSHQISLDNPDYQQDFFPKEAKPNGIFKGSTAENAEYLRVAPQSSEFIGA
T2 sequence (P00533 25-1210 T790M/L858R): as above
EGFR (D746-750/C797S), sequence (P00533 with tags, fused parts or gaps DEL746-750/C797S): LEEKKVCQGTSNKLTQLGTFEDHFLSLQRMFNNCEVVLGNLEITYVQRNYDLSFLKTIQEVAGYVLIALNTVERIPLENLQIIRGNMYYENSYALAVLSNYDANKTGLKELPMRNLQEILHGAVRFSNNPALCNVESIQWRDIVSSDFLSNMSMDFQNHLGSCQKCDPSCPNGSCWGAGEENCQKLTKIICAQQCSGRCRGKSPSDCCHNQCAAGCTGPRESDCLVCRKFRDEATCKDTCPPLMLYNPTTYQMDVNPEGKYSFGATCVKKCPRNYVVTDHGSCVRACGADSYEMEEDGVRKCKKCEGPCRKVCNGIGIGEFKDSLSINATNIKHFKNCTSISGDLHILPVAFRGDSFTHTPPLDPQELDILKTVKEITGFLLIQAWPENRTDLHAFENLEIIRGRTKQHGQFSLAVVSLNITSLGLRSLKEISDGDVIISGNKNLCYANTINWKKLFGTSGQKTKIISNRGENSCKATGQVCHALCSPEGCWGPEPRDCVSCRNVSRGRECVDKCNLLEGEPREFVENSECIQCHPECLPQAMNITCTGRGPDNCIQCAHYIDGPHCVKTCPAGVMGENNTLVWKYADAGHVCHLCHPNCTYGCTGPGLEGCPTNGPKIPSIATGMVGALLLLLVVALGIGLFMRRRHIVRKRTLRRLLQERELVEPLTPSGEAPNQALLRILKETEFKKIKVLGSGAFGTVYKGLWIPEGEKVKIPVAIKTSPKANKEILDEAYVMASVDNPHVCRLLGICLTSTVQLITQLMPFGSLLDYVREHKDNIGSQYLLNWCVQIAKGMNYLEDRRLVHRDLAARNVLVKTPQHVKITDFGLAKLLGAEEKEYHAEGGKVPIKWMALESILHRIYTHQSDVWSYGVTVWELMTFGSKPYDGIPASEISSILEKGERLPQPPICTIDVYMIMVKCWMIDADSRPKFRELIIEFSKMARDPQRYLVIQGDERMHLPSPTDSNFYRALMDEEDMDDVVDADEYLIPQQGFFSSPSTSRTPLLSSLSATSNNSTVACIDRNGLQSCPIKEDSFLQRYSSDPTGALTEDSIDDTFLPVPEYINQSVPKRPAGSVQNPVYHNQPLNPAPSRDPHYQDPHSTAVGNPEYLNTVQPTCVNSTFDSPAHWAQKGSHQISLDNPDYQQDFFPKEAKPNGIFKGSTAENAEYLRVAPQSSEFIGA
T1 sequence (P00533 25-1210): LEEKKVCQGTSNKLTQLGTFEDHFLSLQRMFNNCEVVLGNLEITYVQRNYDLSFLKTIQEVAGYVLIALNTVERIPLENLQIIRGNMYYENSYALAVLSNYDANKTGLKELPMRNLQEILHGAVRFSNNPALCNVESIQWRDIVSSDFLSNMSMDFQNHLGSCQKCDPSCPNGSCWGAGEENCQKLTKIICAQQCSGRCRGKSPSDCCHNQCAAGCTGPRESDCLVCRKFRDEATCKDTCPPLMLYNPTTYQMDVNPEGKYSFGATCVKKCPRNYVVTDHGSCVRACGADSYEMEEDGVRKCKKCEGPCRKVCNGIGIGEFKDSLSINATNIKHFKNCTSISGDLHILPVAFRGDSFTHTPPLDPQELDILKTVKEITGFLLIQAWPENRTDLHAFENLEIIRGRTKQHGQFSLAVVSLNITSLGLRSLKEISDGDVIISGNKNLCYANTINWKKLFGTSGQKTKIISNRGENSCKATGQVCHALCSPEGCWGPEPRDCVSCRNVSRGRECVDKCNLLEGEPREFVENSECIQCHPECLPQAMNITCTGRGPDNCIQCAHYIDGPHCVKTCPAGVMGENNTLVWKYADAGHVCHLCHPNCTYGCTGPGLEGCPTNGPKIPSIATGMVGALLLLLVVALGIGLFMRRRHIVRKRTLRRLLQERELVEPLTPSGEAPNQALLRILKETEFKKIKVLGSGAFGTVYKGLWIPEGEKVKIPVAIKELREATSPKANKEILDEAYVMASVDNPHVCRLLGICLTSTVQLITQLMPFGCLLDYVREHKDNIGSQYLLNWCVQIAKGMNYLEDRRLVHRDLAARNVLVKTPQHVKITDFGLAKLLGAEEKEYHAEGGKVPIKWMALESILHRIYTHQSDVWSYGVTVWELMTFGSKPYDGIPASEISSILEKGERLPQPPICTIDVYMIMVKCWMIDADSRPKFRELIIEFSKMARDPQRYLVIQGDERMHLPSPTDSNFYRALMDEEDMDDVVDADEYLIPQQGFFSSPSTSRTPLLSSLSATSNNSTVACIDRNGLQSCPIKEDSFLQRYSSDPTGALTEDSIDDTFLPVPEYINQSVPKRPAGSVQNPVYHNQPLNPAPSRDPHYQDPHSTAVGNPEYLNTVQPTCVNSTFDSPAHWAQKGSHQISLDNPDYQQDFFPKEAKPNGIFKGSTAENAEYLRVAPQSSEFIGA

## CCN1Cc2c(c(OC(C)C)nn2CCO)/C=C/c2n[nH]c3cnc(cc23)-c2cnn(C)c2O[C@H](C)C1 [Ex. 10, 2-[(10R,17E)-12-ethyl-8,10-dimethyl-16-[(propan-2-yl)oxy]-2,8,10,11,12,13-hexahydro-14H-5,3-(azenometheno)tripyrazolo[3,4-f:3′,4′-j:4″,3″-n][1,4]oxazacyclopentadecin-14-yl]ethan-1-ol]
[1]
  IC50: 51.9 nM
EGFR (L858R/T790M)
  IC50: 0.46 nM
EGFR (D746-750/C797S)
  IC50: 0.27 nM
EGFR WT
  IC50: 0.35 nM
EGFR (L858R)
  IC50: 0.46 nM
[2]
  IC50: 4.82 nM
EGFR (L858R/T790M/C797S)
  IC50: 0.51 nM
EGFR (D770_N771insNPG)
  IC50: 0.4 nM
[3]
  IC50: 0.69 nM
EGFR (D746-750)
  IC50: 0.64 nM
[4]
  IC50: 10.8 nM
[5]
  IC50: 1.89 nM

## CCOc1nn(CCO)c2c1/C=C/c1n[nH]c3cnc(cc13)-c1cnn(C)c1O[C@@H](C)CN(C(C)C)C2 [Ex. 11, 2-[(10S,17E)-16-ethoxy-8,10-dimethyl-12-(propan-2-yl)-2,8,10,11,12,13-hexahydro-14H-5,3-(azenometheno)tripyrazolo[3,4-f:3′,4′-j:4″,3″-n][1,4]oxazacyclopentadecin-14-yl]ethan-1-ol]
[1]
  IC50: 16.1 nM
EGFR (L858R/T790M)
  IC50: 0.44 nM
EGFR (D746-750/C797S)
  IC50: 0.31 nM
EGFR WT
  IC50: 0.1 nM
PC-9 cells
  IC50: 3.65 nM
EGFR (L858R)
  IC50: 0.38 nM
HCC827 cells
  IC50: 0.25 nM
[2]
  IC50: 5.25 nM
NCI-H1975 cells
  IC50: 3.14 nM
EGFR (L858R/T790M/C797S)
  IC50: 0.43 nM
EGFR (D770_N771insNPG)
  IC50: 0.23 nM
EGFR (D746-750)
  IC50: 0.52 nM
[4]
  IC50: 2.86 nM
[5]
  IC50: 0.83 nM
[6]
  IC50: 0.16 nM

## CCOc1nn(CCO)c2c1/C=C/c1n[nH]c3cnc(cc13)-c1cnn(C)c1O[C@H](C)CN(C(C)C)C2 [Ex. 12, 2-[(10R,17E)-16-ethoxy-8,10-dimethyl-12-(propan-2-yl)-2,8,10,11,12,13-hexahydro-14H-5,3-(azenometheno)tripyrazolo[3,4-f:3′,4′-j:4″,3″-n][1,4]oxazacyclopentadecin-14-yl]ethan-1-ol]
[1]
  IC50: 40.7 nM
EGFR (L858R/T790M)
  IC50: 0.43 nM
EGFR (D746-750/C797S)
  IC50: 0.31 nM
EGFR WT
  IC50: 0.39 nM
PC-9 cells
  IC50: 13.8 nM
EGFR (L858R)
  IC50: 0.62 nM
HCC827 cells
  IC50: 2.25 nM
[2]
  IC50: 3.64 nM
NCI-H1975 cells
  IC50: 22.2 nM
EGFR (L858R/T790M/C797S)
  IC50: 0.44 nM
EGFR (D770_N771insNPG)
  IC50: 0.42 nM
EGFR (D746-750)
  IC50: 0.58 nM
[4]
  IC50: 6.38 nM
[5]
  IC50: 1.36 nM
[6]
  IC50: 0.78 nM

## CCOc1nn([C@@H](C)CO)c2c1/C=C/c1n[nH]c3cnc(cc13)-c1cnn(C)c1O[C@@H](C)CN(C)C2 [Ex. 19, (2S)-2-[(10S,17E)-16-ethoxy-8,10,12-trimethyl-2,8,10,11,12,13-hexahydro-14H-5,3-(azenometheno)tripyrazolo[3,4-f:3′,4′-j:4″,3″-n][1,4]oxazacyclopentadecin-14-yl]propan-1-ol]
[1]
  IC50: 10 nM
EGFR (L858R/T790M)
  IC50: 0.37 nM
EGFR (D746-750/C797S)
  IC50: 0.6 nM
EGFR WT
  IC50: 0.15 nM
PC-9 cells
  IC50: 2.74 nM
EGFR (L858R)
  IC50: 0.2 nM
HCC827 cells
  IC50: 0.28 nM
[2]
  IC50: 2.85 nM
NCI-H1975 cells
  IC50: 1.51 nM
EGFR (L858R/T790M/C797S)
  IC50: 1.78 nM
EGFR (D770_N771insNPG)
  IC50: 0.19 nM
EGFR (D746-750)
  IC50: 0.14 nM
[4]
  IC50: 2.54 nM
[5]
  IC50: 0.79 nM
[6]
  IC50: 0.16 nM

## Cc1nn(CCO)c2c1/C=C/c1n[nH]c3cnc(cc13)-c1c(C)nn(C)c1O[C@H](C)CN(C(C)C)C2 [Ex. 20, 2-[(10R,17E)-6,8,10,16-tetramethyl-12-(propan-2-yl)-2,8,10,11,12,13-hexahydro-14H-5,3-(azenometheno)tripyrazolo[3,4-f:3′,4′-j:4″,3″-n][1,4]oxazacyclopentadecin-14-yl]ethan-1-ol]
[1]
  IC50: 61 nM
EGFR (L858R/T790M)
  IC50: 0.81 nM
EGFR (D746-750/C797S)
  IC50: 0.98 nM
EGFR WT
  IC50: 0.71 nM
PC-9 cells
  IC50: 25.2 nM
EGFR (L858R)
  IC50: 0.55 nM
HCC827 cells
  IC50: 2.89 nM
[2]
  IC50: 8.57 nM
NCI-H1975 cells
  IC50: 96 nM
EGFR (L858R/T790M/C797S)
  IC50: 2.57 nM
EGFR (D770_N771insNPG)
  IC50: 1.48 nM
EGFR (D746-750)
  IC50: 0.27 nM
[4]
  IC50: 11.8 nM
[5]
  IC50: 5.29 nM
[6]
  IC50: 3.05 nM

## Cc1nn(CCO)c2c1/C=C/c1n[nH]c3cnc(cc13)-c1c(C)nn(C)c1O[C@@H](C)CN(C(C)C)C2 [Ex. 21, 2-[(10S,17E)-6,8,10,16-tetramethyl-12-(propan-2-yl)-2,8,10,11,12,13-hexahydro-14H-5,3-(azenometheno)tripyrazolo[3,4-f:3′,4′-j:4″,3″-n][1,4]oxazacyclopentadecin-14-yl]ethan-1-ol]
[1]
  IC50: 15.8 nM
EGFR (L858R/T790M)
  IC50: 0.5 nM
EGFR (D746-750/C797S)
  IC50: 0.83 nM
EGFR WT
  IC50: 0.16 nM
PC-9 cells
  IC50: 0.63 nM
EGFR (L858R)
  IC50: 0.29 nM
HCC827 cells
  IC50: 0.26 nM
[2]
  IC50: 2.32 nM
NCI-H1975 cells
  IC50: 5.72 nM
EGFR (L858R/T790M/C797S)
  IC50: 2.14 nM
EGFR (D770_N771insNPG)
  IC50: 0.2 nM
EGFR (D746-750)
  IC50: 0.17 nM
[4]
  IC50: 1.69 nM
[5]
  IC50: 0.9 nM
[6]
  IC50: 0.14 nM
